In ChEMBL document CHEMBL1147790, “Synthetic analogues of the manzamenones and plakoridines which inhibit DNA polymerase” (Bioorg Med Chem Lett, 2006):

molecular target: T1, DNA polymerase alpha catalytic subunit (Homo sapiens, UniProt P09884); assay: Inhibition of DNA polymerase alpha
T1 sequence (P09884 whole entry): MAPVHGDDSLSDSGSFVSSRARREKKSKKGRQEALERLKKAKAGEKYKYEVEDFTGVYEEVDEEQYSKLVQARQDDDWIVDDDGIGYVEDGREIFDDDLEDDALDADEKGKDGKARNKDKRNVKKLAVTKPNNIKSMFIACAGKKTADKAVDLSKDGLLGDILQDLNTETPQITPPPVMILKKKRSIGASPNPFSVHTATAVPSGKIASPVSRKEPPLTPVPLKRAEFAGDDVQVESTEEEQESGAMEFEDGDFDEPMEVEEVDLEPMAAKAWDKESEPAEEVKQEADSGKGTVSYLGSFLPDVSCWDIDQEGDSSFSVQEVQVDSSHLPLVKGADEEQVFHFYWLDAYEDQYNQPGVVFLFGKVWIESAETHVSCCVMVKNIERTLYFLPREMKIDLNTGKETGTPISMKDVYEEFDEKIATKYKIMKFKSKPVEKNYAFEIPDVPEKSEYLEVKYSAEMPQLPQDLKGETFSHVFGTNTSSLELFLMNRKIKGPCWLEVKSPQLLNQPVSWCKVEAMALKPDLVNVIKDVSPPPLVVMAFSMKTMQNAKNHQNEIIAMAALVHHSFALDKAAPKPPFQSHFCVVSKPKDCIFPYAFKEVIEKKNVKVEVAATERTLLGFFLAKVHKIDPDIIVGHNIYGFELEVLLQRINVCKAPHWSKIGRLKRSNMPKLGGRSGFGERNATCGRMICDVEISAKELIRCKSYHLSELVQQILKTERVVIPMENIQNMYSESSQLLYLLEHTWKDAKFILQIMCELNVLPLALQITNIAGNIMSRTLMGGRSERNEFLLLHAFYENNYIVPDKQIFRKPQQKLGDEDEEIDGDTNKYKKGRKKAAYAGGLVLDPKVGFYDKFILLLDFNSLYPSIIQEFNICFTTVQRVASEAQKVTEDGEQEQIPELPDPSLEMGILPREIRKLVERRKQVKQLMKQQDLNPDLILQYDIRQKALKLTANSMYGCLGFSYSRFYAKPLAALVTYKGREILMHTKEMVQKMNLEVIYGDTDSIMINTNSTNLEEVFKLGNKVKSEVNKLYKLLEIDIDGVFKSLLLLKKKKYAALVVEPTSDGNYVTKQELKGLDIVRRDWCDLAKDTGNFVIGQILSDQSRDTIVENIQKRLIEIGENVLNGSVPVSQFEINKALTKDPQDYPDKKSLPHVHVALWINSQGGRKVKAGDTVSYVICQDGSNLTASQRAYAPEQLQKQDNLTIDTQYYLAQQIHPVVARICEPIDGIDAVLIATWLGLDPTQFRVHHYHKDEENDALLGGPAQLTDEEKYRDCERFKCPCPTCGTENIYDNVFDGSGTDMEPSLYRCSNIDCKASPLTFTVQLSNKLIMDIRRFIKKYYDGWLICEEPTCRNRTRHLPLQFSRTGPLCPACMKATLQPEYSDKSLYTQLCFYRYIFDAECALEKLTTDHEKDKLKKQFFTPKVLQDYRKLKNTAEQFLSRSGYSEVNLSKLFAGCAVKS

Row | Structure (SMILES) | IC50
1 | CCCCCCCCCCCCCCCCC1=C[C@H](C(=O)OCC)[C@H]2C(=O)C(C(=O)OC)=C(CCCCCCCCCCCCCCCC)[C@H]2[C@H]1C(=O)OC | 2.3 µM
2 | CCCCCCCCCCCCCCCC[C@]1(O)C=CC(=O)[C@H]1C(=O)OC [UNTENONE A] | 4.3 µM
3 | CCCCCCCCCCCCCCCCC1=C[C@H](C(=O)OC)[C@H]2C(=O)[C@]3(C(=O)OC)C[C@]3(CCCCCCCCCCCCCCCC)[C@H]2[C@H]1C(=O)OC | > 12.5 µM
4 | CCCCCCCCCCCCC(=O)/C=C1\[C@@H](O)[C@@H](C(=O)OC)[C@H](CC)N1Cc1ccccc1 | 19.7 µM
5 | CCCCCCCCCCCCC(=O)/C=C1\[C@H](O)[C@@H](C(=O)OC)[C@H](c2ccccc2)N1CCc1c[nH]c2ccccc12 | 21 µM
6 | CCCCCCCCCCCCCCCCC1=C[C@H](C(=O)OCC)[C@H]2C(=O)C(C(=O)OC)=C(CCCCCCCCCCCCCCCC)[C@H]2[C@@H]1C(=O)OC | 3.5 µM
7 | CCCCCCCCCCCCCCCC[C@]1(O)C=C[C@H](O)[C@H]1C(=O)OC [PLAKEVULIN A] | 66 µM

The next lines start with the values.

Row | IC50 | Structure (SMILES)
8 | 25 µM | CCCCCCCCCCCCC(=O)/C=C1\[C@H](O)[C@@H](C(=O)OC)[C@H](CC)N1CCc1ccccc1
9 | 1.9 µM | CCCCCCCCCCCCC1=C[C@H](C(=O)O)[C@H]2C(=O)C(C(=O)OC)=C(CCCCCCCCCCCC)[C@H]2[C@H]1C(=O)OC
10 | 1.9 µM | CCCCCCCCCCCCCCCCC1=C[C@H](C(=O)O)[C@H]2C(=O)C(C(=O)OC)=C(CCCCCCCCCCCCCCCC)[C@H]2[C@H]1C(=O)OC
11 | > 50 µM | CCC1=C[C@H](C(=O)O)[C@H]2C(=O)C(C(=O)OC)=C(CC)[C@H]2[C@H]1C(=O)OC
12 | 6.9 µM | CCCCCCCCCCCCCCCCC1=C[C@H](C(=O)NCCc2ccccc2)[C@H]2C(=O)C(C(=O)OC)=C(CCCCCCCCCCCCCCCC)[C@H]2[C@H]1C(=O)OC
13 | 19.9 µM | CCCCCCCCCCCCC(=O)/C=C1\[C@H](O)[C@@H](C(=O)OC)[C@H](CC)N1Cc1ccccc1
14 | 3.7 µM | CCCCCCCCCCCCCCCCC(=O)/C=C/C(=O)CC(=O)OC [E-ENEDIONE]
15 | 3.3 µM | CCCCCCCCCCCCCCCCC1=C[C@H](C(=O)O)[C@H]2C(=O)C(C(=O)OC(C)C)=C(CCCCCCCCCCCCCCCC)[C@H]2[C@H]1C(=O)OC(C)C

molecular target: DNA nucleotidylexotransferase (Homo sapiens, UniProt P04053); assay: Inhibition of human TdT
Sequence (P04053 whole entry): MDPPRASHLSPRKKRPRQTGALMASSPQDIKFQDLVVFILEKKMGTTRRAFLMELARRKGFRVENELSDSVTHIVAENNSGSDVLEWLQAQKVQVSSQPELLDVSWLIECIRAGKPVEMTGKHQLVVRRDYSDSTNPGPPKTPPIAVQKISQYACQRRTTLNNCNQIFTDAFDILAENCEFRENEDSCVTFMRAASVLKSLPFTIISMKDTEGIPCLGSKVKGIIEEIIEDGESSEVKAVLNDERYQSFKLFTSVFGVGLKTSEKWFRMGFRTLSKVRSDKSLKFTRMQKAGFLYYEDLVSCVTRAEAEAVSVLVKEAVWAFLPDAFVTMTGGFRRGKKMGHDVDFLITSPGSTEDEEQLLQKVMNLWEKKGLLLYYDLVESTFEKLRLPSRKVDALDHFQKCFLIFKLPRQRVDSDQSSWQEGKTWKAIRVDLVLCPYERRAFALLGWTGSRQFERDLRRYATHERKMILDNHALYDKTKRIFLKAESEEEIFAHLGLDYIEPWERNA

Row | Structure (SMILES) | IC50
16 | CCCCCCCCCCCCCCCCC1=C[C@H](C(=O)OCC)[C@H]2C(=O)C(C(=O)OC)=C(CCCCCCCCCCCCCCCC)[C@H]2[C@H]1C(=O)OC | 39.7 µM
17 | CCCCCCCCCCCCCCCCC1=C[C@H](C(=O)OC)[C@H]2C(=O)[C@]3(C(=O)OC)C[C@]3(CCCCCCCCCCCCCCCC)[C@H]2[C@H]1C(=O)OC | > 12.5 µM
18 | CCCCCCCCCCCCC(=O)/C=C1\[C@@H](O)[C@@H](C(=O)OC)[C@H](CC)N1Cc1ccccc1 | > 50 µM
19 | CCCCCCCCCCCCC(=O)/C=C1\[C@H](O)[C@@H](C(=O)OC)[C@H](c2ccccc2)N1CCc1c[nH]c2ccccc12 | > 50 µM
20 | CCCCCCCCCCCCCCCCC1=C[C@H](C(=O)OCC)[C@H]2C(=O)C(C(=O)OC)=C(CCCCCCCCCCCCCCCC)[C@H]2[C@@H]1C(=O)OC | 48.4 µM

The next lines start with the values.

Row | IC50 | Structure (SMILES)
21 | > 50 µM | CCCCCCCCCCCCC(=O)/C=C1\[C@H](O)[C@@H](C(=O)OC)[C@H](CC)N1CCc1ccccc1
22 | 8.6 µM | CCCCCCCCCCCCC1=C[C@H](C(=O)O)[C@H]2C(=O)C(C(=O)OC)=C(CCCCCCCCCCCC)[C@H]2[C@H]1C(=O)OC
23 | 2.5 µM | CCCCCCCCCCCCCCCCC1=C[C@H](C(=O)O)[C@H]2C(=O)C(C(=O)OC)=C(CCCCCCCCCCCCCCCC)[C@H]2[C@H]1C(=O)OC
24 | > 50 µM | CCC1=C[C@H](C(=O)O)[C@H]2C(=O)C(C(=O)OC)=C(CC)[C@H]2[C@H]1C(=O)OC
25 | > 12.5 µM | CCCCCCCCCCCCCCCCC1=C[C@H](C(=O)NCCc2ccccc2)[C@H]2C(=O)C(C(=O)OC)=C(CCCCCCCCCCCCCCCC)[C@H]2[C@H]1C(=O)OC
26 | > 50 µM | CCCCCCCCCCCCC(=O)/C=C1\[C@H](O)[C@@H](C(=O)OC)[C@H](CC)N1Cc1ccccc1
27 | 20 µM | CCCCCCCCCCCCCCCCC1=C[C@H](C(=O)O)[C@H]2C(=O)C(C(=O)OC(C)C)=C(CCCCCCCCCCCCCCCC)[C@H]2[C@H]1C(=O)OC(C)C

molecular target: DNA polymerase beta (Homo sapiens, UniProt P06746); assay: Inhibition of DNA polymerase beta

Row | Structure (SMILES) | IC50
28 | CCCCCCCCCCCCCCCCC1=C[C@H](C(=O)OCC)[C@H]2C(=O)C(C(=O)OC)=C(CCCCCCCCCCCCCCCC)[C@H]2[C@H]1C(=O)OC | 1.9 µM
29 | CCCCCCCCCCCCCCCC[C@]1(O)C=CC(=O)[C@H]1C(=O)OC [UNTENONE A] | 57 µM
30 | CCCCCCCCCCCCCCCCC1=C[C@H](C(=O)OC)[C@H]2C(=O)[C@]3(C(=O)OC)C[C@]3(CCCCCCCCCCCCCCCC)[C@H]2[C@H]1C(=O)OC | > 12.5 µM
31 | CCCCCCCCCCCCC(=O)/C=C1\[C@@H](O)[C@@H](C(=O)OC)[C@H](CC)N1Cc1ccccc1 | 27.1 µM
32 | CCCCCCCCCCCCC(=O)/C=C1\[C@H](O)[C@@H](C(=O)OC)[C@H](c2ccccc2)N1CCc1c[nH]c2ccccc12 | 10 µM
33 | CCCCCCCCCCCCCCCCC1=C[C@H](C(=O)OCC)[C@H]2C(=O)C(C(=O)OC)=C(CCCCCCCCCCCCCCCC)[C@H]2[C@@H]1C(=O)OC | 2.4 µM
34 | CCCCCCCCCCCCCCCC[C@]1(O)C=C[C@H](O)[C@H]1C(=O)OC [PLAKEVULIN A] | 179 µM

More lines, now with the values ahead:

Row | IC50 | Structure (SMILES)
35 | 22 µM | CCCCCCCCCCCCC(=O)/C=C1\[C@H](O)[C@@H](C(=O)OC)[C@H](CC)N1CCc1ccccc1
36 | 2.3 µM | CCCCCCCCCCCCC1=C[C@H](C(=O)O)[C@H]2C(=O)C(C(=O)OC)=C(CCCCCCCCCCCC)[C@H]2[C@H]1C(=O)OC
37 | 3.2 µM | CCCCCCCCCCCCCCCCC1=C[C@H](C(=O)O)[C@H]2C(=O)C(C(=O)OC)=C(CCCCCCCCCCCCCCCC)[C@H]2[C@H]1C(=O)OC
38 | > 50 µM | CCC1=C[C@H](C(=O)O)[C@H]2C(=O)C(C(=O)OC)=C(CC)[C@H]2[C@H]1C(=O)OC
39 | 8.7 µM | CCCCCCCCCCCCCCCCC1=C[C@H](C(=O)NCCc2ccccc2)[C@H]2C(=O)C(C(=O)OC)=C(CCCCCCCCCCCCCCCC)[C@H]2[C@H]1C(=O)OC
40 | 30 µM | CCCCCCCCCCCCC(=O)/C=C1\[C@H](O)[C@@H](C(=O)OC)[C@H](CC)N1Cc1ccccc1
41 | 8.8 µM | CCCCCCCCCCCCCCCCC(=O)/C=C/C(=O)CC(=O)OC [E-ENEDIONE]
42 | 4.4 µM | CCCCCCCCCCCCCCCCC1=C[C@H](C(=O)O)[C@H]2C(=O)C(C(=O)OC(C)C)=C(CCCCCCCCCCCCCCCC)[C@H]2[C@H]1C(=O)OC(C)C
